Data set [1] concerns lipid peroxide formation in rat brain tissue homogenate. Description: Activity to inhibit lipid peroxide formation in rat brain tissue homogenate (TBA method). The class given is biochemical. Conditions: 10^-5 M; 5% rat brain homogenate, 37° C., 1 hour; n=3, mean; vs. DMSO reference. The protocol:
Male SD rats (12-week-old) were subjected to exsanguination under anesthesia with pentobarbital, then the brain was excised. The brain tissue was homogenized in a phosphate buffer (pH 7.4) to prepare a 5% homogenate. After incubation of the homogenate at 37° C. for 1 hour, the amount of lipid peroxides formed therein was determined by the thiobarbituric acid (TBA) method in accordance with the report of Ohkawa et al. on Analytical Biochemistry, 95, 351, (1979). The test drug was added to the 5% homogenate before incubation so as to make the final concentration be 10^-5 M The activity to inhibit the formation of lipid peroxide was compared with that of the reference group to which was added the solvent (DMSO), and shown by % inhibition.

The subject of data set [2] is mice. Nature of the data set: Acute toxicity in mice. The class given is in vivo. Conditions: oral, 300 and 1000 mg/kg. The protocol: Male Crj-ICR mice (4-week-old, 21 to 26 g) were used. The animals, divided into groups, each consisting of six mice, were administered orally with compounds (4-c, 4-h) at the dosages of 300 and 1000 mg/kg, respectively. Then, each group was housed in a cage and observed for 24 hours.
The test drugs were suspended in gum arabic and administered at a volume of 0.1 ml/10 g.

Data set [3] concerns ventricular arrhythmia during coronary artery occlusion-reperfusion in rat hearts. Nature of the data set: Activity to inhibit occurrence of ventricular arrhythmia during coronary artery occlusion-reperfusion in rat hearts. The class given is in vivo. Particulars: 50 mg/kg, oral; for Ventricular fibrillation, Incidence (10 min.) / Ventricular tachycardia, Incidence (10 min.): 10 min. observation; for Ventricular fibrillation, Incidence (10 min.): control 4.1 ± 0.7; for Ventricular tachycardia, Incidence (10 min.): control 11.5 ± 5.0; for Ventricular tachycardia, Duration / Ventricular fibrillation, Duration: average ± SEM; for Ventricular tachycardia, Duration: control 26.5 ± 6.8; for Ventricular fibrillation, Duration: control 74.2 ± 30.8; for Exrasystole: control 11.0 ± 4.0; for Mortality: killed/tested animals, control 2/18. The source says: Male SD rats (9- to 13-week old, 250 to 370 g) were used. The animals were subjected to thoractonomy under artificial respiration while anesthesia was maintained by administering pentobarbital. […] By recording standard limb lead II electrocardiograms, occurrence of ventricular arrhythmia was examined.
Incidences of ventricular fibrillation and ventricular tachycardia are shown by the percentage of the number of animals presenting the symptoms relative to the number of animals subjected to the test, and the duration of the symptoms was shown in average ±SEM by seconds. Extrasystole is shown by the number of systole/min., and the mortality is shown by the percentage of the number of killed animals relative to the number of test animals.

Twelve molecules from patent US4939274A, “Hydroxybutenolide derivatives, production and use thereof” (Takeda Chemical Industries, Ltd., priority 1986, dated 1990) can be followed below.

The structures appear in SMILES notation.

Consider `CCCCCOc1ccc(C2=C(O)COC2=O)cc1` [Compound 4-a], for which the “Inhibition rate (lipid peroxide formation)” value (shortened to “Inhibition rate”) in data set [1] amounted to 57.1%.

For the molecule `CCCCCCCOc1ccc(C2=C(O)COC2=O)cc1` [Compound 4-b], the “Inhibition rate” value in data set [1] came to 100.0%.

On to `CCCCCCCCCCOc1ccc(C2=C(O)C(C)OC2=O)cc1` (stereo not shown) [Compound 4-d], for which the “Inhibition rate” value in data set [1] is listed as 100.0%.

Take `CCCCCCCCCCOc1ccc(C2=C(O)C(c3ccccc3)OC2=O)cc1` (stereo not shown) [Compound 4-e]: the “Inhibition rate” value in data set [1] was 100.0%.

In the case of `CCCCCCCCCCCOc1ccc(C2=C(O)COC2=O)cc1` [Compound 4-f], the “Inhibition rate” value in data set [1] was 89.7%.

`CCCCCCCCCCCOc1ccc(C2=C(O)C(c3ccccc3)OC2=O)cc1` (stereo not shown) [Compound 4-g, 2-(4-undecyloxyphenyl)-3-hydroxy-4-phenyl-2-buten-4-olide]: in data set [1], the “Inhibition rate” value turned out to be 100.0%.

Turning to `CCCCCCCCCCCCOc1ccc(C2=C(O)COC2=O)cc1` [Compound 4-h, 2-(4-dodecyloxyphenyl)-3-hydroxy-2-buten-4-olide], the “Inhibition rate” value in data set [1] stood at 100.0%. Moreover, the “recovery from sedation and ptosis” value in data set [2] was not above 3 h. Also, the “state of sedation and ptosis, animals affected” value in data set [2] (six mice per group) was “half number of the test animals”.

`CCCCCCCCCCCCOc1ccc(C2=C(O)C(C)OC2=O)cc1` (stereo not shown) [Compound 4-i]: the “Inhibition rate” value in data set [1] came to 100.0%.

On to `CCCCCCCCCCCCCCOc1ccc(C2=C(O)COC2=O)cc1` [Compound 4-j], for which, in data set [1], the “Inhibition rate” value came to 100.0%.

For `CCCCCCCCCCCCCCCCCCOc1ccc(C2=C(O)COC2=O)cc1` [Compound 4-k], the “Inhibition rate” value in data set [1] is 80.1%.

On to `O=C1O[C@H]([C@@H](O)CO)C(O)=C1O` [Vitamin C, ascorbic acid], for which, in data set [1], the “Inhibition rate” value is recorded as -71.6%. Moreover, in data set [3], the “effect on ventricular arrhythmia” value was “no significant effect”; the “Ventricular fibrillation, Incidence (10 min.)” value came to 5.4 ± 0.8; the “Ventricular tachycardia, Incidence (10 min.)” value came to 9.5 ± 1.8; the “Ventricular tachycardia, Duration” value amounted to 12.0 ± 2.9 s. Moreover, in data set [3], the “Ventricular fibrillation, Duration” value stood at 74.1 ± 36.0 s; the Exrasystole was 11.0 ± 0.8 times/min; the Mortality is 1/12.

Regarding `Cc1c(C)c2c(c(C)c1O)CC[C@@](C)(CCC[C@H](C)CCC[C@H](C)CCCC(C)C)O2` [Vitamin E, α-tocopherol], the “Inhibition rate” value in data set [1] amounted to 44.9%. For the same molecule, in data set [3], the “effect on ventricular arrhythmia” value is “no significant effect”; the “Ventricular fibrillation, Incidence (10 min.)” value was found to be 2.0 ± 0.7; the “Ventricular tachycardia, Incidence (10 min.)” value was determined as 3.7 ± 1.5; the “Ventricular tachycardia, Duration” value came to 22.3 ± 9.7 s. In addition, in data set [3], the “Ventricular fibrillation, Duration” value was 43.4 ± 36.0 s; the Exrasystole was 7.0 ± 4.1 times/min; the Mortality is 1/10.
